Measured values from the RepoRT retention time repository (doi:10.1093/pcp/pcn183).
Counter-ions that a name gives are not always drawn.

Assay: RP, Waters ACQUITY UPLC BEH C18, 38 °C, 0.24 mL/min; A: water + 0.1% formic acid, pH 3; B: acetonitrile + 0.1% formic acid, pH 3; gradient (min/%B) 0/0 0.25/0 0.4/9 0.8/17 1.9/100 2.1/100 2.11/0 3/0
Settings: stereoisomer not certain

In the case of `NCCc1ccc(O)cc1` [Tyramine], the LC retention time was 0.67 min.
`O=P(O)(O)OCC1OC(O)CC1O` (configuration not stated) [2-Deoxyribose-5-phosphate sodium salt] gave an LC retention time of 0.18 min.
Compound `COc1cc(C=Cc2cc(O)cc(OC3OC(CO)C(O)C(O)C3O)c2)ccc1O` (configuration not stated) [E-4,5'-dihydroxy-3-methoxy-3'-glucopyranosylstilbene] has an LC retention time of 1.42 min.
`Nc1ncnc2c1ncn2C1CC(O)C(COP(=O)(O)O)O1` (configuration not stated) [2'-Deoxyadenosine-5'-monophosphate] showed an LC retention time of 0.62 min.
`N=c1nc(N2CCCCC2)cc(N)n1O` [Minoxidil] showed an LC retention time of 1.32 min.
Work on `CSCC[C@H](N)C(=O)O` [L-Methionine] yielded an LC retention time of 0.31 min.
`Nc1ccccc1` [Aniline] gave an LC retention time of 0.42 min.
`Cc1ncc(COP(=O)(O)O)c(C=O)c1O` [pyridoxal-5'-phosphate hydrate] gave an LC retention time of 0.39 min.
With `C=CCC(=NOS(=O)(=O)O)SC1OC(CO)C(O)C(O)C1O` (configuration not stated) [sinigrin] the LC retention time was 0.38 min.
With `NCCC(=O)NC(Cc1cnc[nH]1)C(=O)O` [L-Carnosine] the LC retention time was 0.16 min.
Compound `O=C[C@H](O)[C@H](O)COP(=O)(O)O` [D-Erythrose-4-phosphate sodium salt] has an LC retention time of 0.16 min.
Work on `O=C1O[C@H]([C@@H](O)CO)C(O)=C1O` [L-Ascorbic acid] yielded an LC retention time of 1.15 min.
For `CC(O)CN` (stereo not drawn) [R-(-)-1-Amino-2-propanol], the LC retention time was 0.17 min.
Work on `CC(C)C(N)CC(=O)O` [L-beta-homovaline-HCl] yielded an LC retention time of 0.55 min.
For `O=c1cc(-c2ccc(O)c(O)c2)oc2c(C3OC(CO)C(O)C(O)C3O)c(O)cc(O)c12` (configuration not stated) [Orientin], the LC retention time was 1.35 min.
In the case of `OCC(O)C(O)C(O)CO` (configuration not stated), the LC retention time was 0.17 min.
`CC(=O)OC[C@H](N)C(=O)O` [O-acetyl-L-serine hydrochloride] gave an LC retention time of 0.19 min.
In the case of `CNCC(O)c1cccc(O)c1` [(R)-(-)-Phenylephrine hydrochloride], the LC retention time was 0.59 min.
`O=C(O)CCCCCCCCC(=O)O` [Sebacic acid] gave an LC retention time of 1.58 min.
For `COc1ccccc1C=CC(=O)O` [2-Methoxycinnamic acid], the LC retention time was 1.68 min.
Work on `COc1cc(CC(=O)O)ccc1O` [Homovanillic acid] yielded an LC retention time of 1.33 min.
Work on `CN1C2CCC1CC(=O)C2` [Tropinone] yielded an LC retention time of 0.24 min.
Work on `COc1cc(/C=C/C(=O)O)ccc1O` [trans-4-Hydroxy-3-methoxycinnamic acid] yielded an LC retention time of 1.44 min.
`O=C(O)C=Cc1cnc[nH]1` [urocanic acid] gave an LC retention time of 0.38 min.
Work on `CCCCCCCCCCCCCCCCC` [Heptadecane] yielded an LC retention time of 1.81 min.
`CCC=CCC1C(=O)CCC1CC(=O)O` (racemic) [(+-)-Jasmonic acid] gave an LC retention time of 1.68 min.
For `NCCCCNCCCN` [Spermidine], the LC retention time was 0.14 min.
`COc1ccccc1C(=O)O` [o-Anisic Acid] showed an LC retention time of 1.47 min.
With `CC(C)[C@H](N)C(=O)O` [L-Valine] the LC retention time was 0.25 min.
Work on `O=c1cc(-c2ccc(O)c(O)c2)oc2cc(OC3OC(CO)C(O)C(O)C3O)cc(O)c12` (configuration not stated) [luteolin-7-O-glucoside] yielded an LC retention time of 1.41 min.
In the case of `CC(=CCNc1ncnc2c1ncn2C1OC(CO)C(O)C1O)CO` (stereo not drawn) [trans-Zeatin-riboside], the LC retention time was 1.16 min.
Work on `COc1ccc(-c2coc3cc(OC4OC(CO)C(O)C(O)C4O)cc(O)c3c2=O)cc1` (configuration not stated) [Sissotrin] yielded an LC retention time of 1.61 min.
With `CS(=O)C=CCCN=C=S` (configuration not stated) the LC retention time was 1.44 min.
With `O=c1c(-c2ccc(O)cc2)coc2cc(O)ccc12` [Daidzein] the LC retention time was 1.57 min.
For `N[C@@H](Cc1ccc(O)c(Cl)c1)C(=O)O` [3-Chloro-L-tyrosine hydrochloride], the LC retention time was 1.1 min.
In the case of `N[C@@H](Cc1ccc(O)cc1)C(=O)O` [L-Tyrosine], the LC retention time was 0.61 min.
`COc1cc(C=CC=O)ccc1O` [4-Hydroxy-3-methoxycinnamaldehyde] showed an LC retention time of 1.52 min.
`O=C(O)CNC(=O)Cc1ccccc1` [Phenaceturic acid] gave an LC retention time of 1.36 min.
`O=C1CC(c2ccc(O)c(O)c2)Oc2cc(O)cc(O)c21` (configuration not stated) [Eriodictyol] gave an LC retention time of 1.59 min.
For `CC=C(C)C(=O)NCC(=O)O` [N-Tigloylglycine], the LC retention time was 1.18 min.
For `COc1cc(-c2[o+]c3cc(O)cc(OC4OC(CO)C(O)C(O)C4O)c3cc2OC2OC(COC3OC(C)C(OC(=O)C=Cc4ccc(O)cc4)C(O)C3O)C(O)C(O)C2O)cc(O)c1O` (configuration not stated), the LC retention time was 1.36 min.
`OCC1OC(OCC2OC(O)(CO)C(O)C2O)C(O)C(O)C1O` (configuration not stated) [Palatinose Monohydrate] gave an LC retention time of 0.19 min.
With `NC(=O)CCCCC1CCSS1` (racemic) [DL-Thioctamide] the LC retention time was 1.57 min.
`O=C(O)/C=C/c1ccc(O)cc1` [4-Coumaric acid] showed an LC retention time of 1.41 min.
With `NCCS(=O)(=O)O` [Taurine] the LC retention time was 0.16 min.
Work on `CNCC(=O)O` [Sarcosine] yielded an LC retention time of 0.16 min.
For `O=C(O)C(O)C(O)C(O)C(O)C(=O)O` (configuration not stated) [mucic acid], the LC retention time was 2.13 min.
Compound `CC(=O)Oc1ccc2c(C)cc(=O)oc2c1` [4-methylumbelliferyl acetate] has an LC retention time of 1.69 min.
For `NCC(=O)CCC(=O)O` [delta-Aminolevulinic acid hydrochloride], the LC retention time was 0.18 min.
For `N[C@@H](Cc1cnc[nH]1)C(=O)O` [L-Histidine], the LC retention time was 0.15 min.
`CC[C@H](C)[C@H](N)CC(=O)O` [L-beta-Homoisoleucine hydrochloride] gave an LC retention time of 1.1 min.
`NC(CCC(=O)NC(CSSCC(NC(=O)CCC(N)C(=O)O)C(=O)NCC(=O)O)C(=O)NCC(=O)O)C(=O)O` (configuration not stated) [Glutathione (oxidized form)] gave an LC retention time of 0.95 min.
In the case of `COc1ccc(C2CC(=O)c3c(O)cc(OC4OC(CO)C(O)C(O)C4OC4OC(C)C(O)C(O)C4O)cc3O2)cc1` (configuration not stated) [Poncirin], the LC retention time was 1.56 min.
For `[NH3+]CCCCCC(=O)[O-]` [6-Aminohexanoic acid], the LC retention time was 0.41 min.
With `Nc1ncn[nH]1` [3-Amino-1,2,4-triazole] the LC retention time was 0.18 min.
Work on `Nc1ncnc2c1ncn2C1OC(CO)C(OP(=O)(O)O)C1O` (configuration not stated) [Adenosine 3'-monophosphate From Yeast] yielded an LC retention time of 0.64 min.
Compound `O=C(O)c1ccc(O)c(O)c1` [3,4-Dihydroxybenzoic acid] has an LC retention time of 1.14 min.
Work on `NOCC(=O)O` [Aminooxyacetic acid Hemihydrochloride] yielded an LC retention time of 0.17 min.
Compound `Cn1c(=O)[nH]c2ncn(C)c2c1=O` [1,7-Dimethylxanthine] has an LC retention time of 1.15 min.
With `NCCCCC(=O)O` [5-Aminovaleric acid] the LC retention time was 0.23 min.
Compound `Cc1ncc(CO)c(CO)c1O` [Pyridoxine] has an LC retention time of 0.53 min.
For `NC(=O)C[C@H](N)C(=O)O` [L-Asparagine], the LC retention time was 0.16 min.
In the case of `Nc1ccc(C(=O)NCC(=O)O)cc1` [4-Aminohippurate], the LC retention time was 0.93 min.
With `Nc1nc2c(ncn2C2OC(COP(=O)(O)OP(=O)(O)OC3OC(CO)C(O)C(O)C3O)C(O)C2O)c(=O)[nH]1` [Guanosine-5'-diphosphate-D-mannose sodium salt] the LC retention time was 0.27 min.
For `CCCCCCN` [Hexylamine], the LC retention time was 1.21 min.
`O=C(O)c1cc(=O)c2ccccc2[nH]1` [Kynurenic acid] showed an LC retention time of 1.19 min.
With `OCC1OC(Oc2cc3c(O)cc(O)cc3[o+]c2-c2cc(O)c(O)c(O)c2)C(O)C(O)C1O` (stereo not drawn) [Delphinidin-3-O-beta-glucopyranoside] the LC retention time was 1.16 min.
